Reference: the NIST ThermoML archive (doi:10.1021/je025657+)
Several values for one entry are separate records, joined by “and”; a condition that tells them apart may be missing. Equal values may be shown once.

Conditions: for vapor or sublimation pressure: Closed cell (Static) method

COC(F)(F)F [trifluoromethoxymethane]
Gas, Burnett expansion method
Conditions | mass density [kg/m3]
320 K, 421.5 kPa | 17.3
320 K, 570.4 kPa | 24.28
320 K, 604.9 kPa | 25.98
320 K, 802.9 kPa | 36.45
320 K, 847.1 kPa | 38.98
330 K, 137.5 kPa | 5.133
330 K, 188.9 kPa | 7.099
330 K, 203.7 kPa | 7.696
330 K, 280.6 kPa | 10.75
330 K, 300.2 kPa | 11.55
330 K, 410.7 kPa | 16.13
330 K, 437.5 kPa | 17.29
330 K, 594.3 kPa | 24.27
330 K, 630.6 kPa | 25.96
330 K, 841.9 kPa | 36.48
330 K, 889 kPa | 38.98
340 K, 141.7 kPa | 5.126
340 K, 195.8 kPa | 7.136
340 K, 210.4 kPa | 7.694
340 K, 310.5 kPa | 11.54
340 K, 425.6 kPa | 16.13
340 K, 453.5 kPa | 17.28
340 K, 655.6 kPa | 25.94
340 K, 879.5 kPa | 36.45
340 K, 929.4 kPa | 38.95
340 K, 1216.9 kPa | 54.78
340 K, 1278.5 kPa | 58.56
340 K, 1605.8 kPa | 82.06
350 K, 146.2 kPa | 5.127
350 K, 202.9 kPa | 7.174
350 K, 217 kPa | 7.688
350 K, 299.5 kPa | 10.74
350 K, 320.6 kPa | 11.53
350 K, 469.2 kPa | 17.27
350 K, 640.8 kPa | 24.25
350 K, 680.3 kPa | 25.92
350 K, 969 kPa | 38.92
350 K, 1277.1 kPa | 54.75
350 K, 1343.5 kPa | 58.5
350 K, 1709.6 kPa | 82.31
350 K, 1782.8 kPa | 87.93

Conditions | mass density [kg/m3]
320 K, 449.1 kPa, Gas | 18.62
320 K, 634.7 kPa, Gas | 27.54
320 K, 968.5 kPa, Gas | 46.37
320 K, 1046.3 kPa, Liquid | 1013.52
320 K, 1081.4 kPa, Liquid | 1013.85
320 K, 1117.7 kPa, Liquid | 1014.21
320 K, 1512.4 kPa, Liquid | 1017.85
320 K, 1515.2 kPa, Liquid | 1018.55
320 K, 2029.1 kPa, Liquid | 1023.1
320 K, 2036.4 kPa, Liquid | 1022.49
320 K, 2520.5 kPa, Liquid | 1026.61
320 K, 2529.1 kPa, Liquid | 1027.35
320 K, 3012.2 kPa, Liquid | 1031.29
320 K, 3050.4 kPa, Liquid | 1030.92
320 K, 3512.7 kPa, Liquid | 1035.21
320 K, 3595.2 kPa, Liquid | 1035.17
320 K, 4030.7 kPa, Liquid | 1039.11
320 K, 4131.4 kPa, Liquid | 1039.19
320 K, 4518.5 kPa, Liquid | 1042.67
320 K, 4616.1 kPa, Liquid | 1042.69
320 K, 5039.6 kPa, Liquid | 1046.35
320 K, 5136.9 kPa, Liquid | 1046.33
320 K, 5518 kPa, Liquid | 1049.62
320 K, 5652.1 kPa, Liquid | 1049.82
320 K, 6055.9 kPa, Liquid | 1053.18
320 K, 6201.4 kPa, Liquid | 1053.41
320 K, 6522.4 kPa, Liquid | 1056.19
320 K, 6721.8 kPa, Liquid | 1056.72
320 K, 6877.8 kPa, Liquid | 1058.42
320 K, 7175.8 kPa, Liquid | 1059.52
330 K, 72.1 kPa, Gas | 2.7
330 K, 106.1 kPa, Gas | 3.97
330 K, 155.7 kPa, Gas | 5.88
330 K, 227.6 kPa, Gas | 8.7
330 K, 330.5 kPa, Gas | 12.87
330 K, 475.1 kPa, Gas | 19.02
330 K, 674.2 kPa, Gas | 28.13
330 K, 936.5 kPa, Gas | 41.69
330 K, 1364.9 kPa, Liquid | 972.53
330 K, 1414.6 kPa, Liquid | 973.15
330 K, 1458.1 kPa, Liquid | 973.66
330 K, 2087 kPa, Liquid | 981.1
330 K, 2555.2 kPa, Liquid | 986.24
330 K, 3114.9 kPa, Liquid | 992.08
330 K, 3553.8 kPa, Liquid | 996.38
330 K, 4105.6 kPa, Liquid | 1001.58
330 K, 4643.4 kPa, Liquid | 1006.39
330 K, 5117 kPa, Liquid | 1010.47
330 K, 5639.1 kPa, Liquid | 1014.76
330 K, 6168.6 kPa, Liquid | 1018.96
330 K, 6739.6 kPa, Liquid | 1023.31
330 K, 7155.4 kPa, Liquid | 1026.38
340 K, 1691.6 kPa, Liquid | 925.88
340 K, 1704.5 kPa, Liquid | 926.14
340 K, 1776.3 kPa, Liquid | 927.36
340 K, 2059.3 kPa, Liquid | 932.03
340 K, 2582.2 kPa, Liquid | 940.1
340 K, 3081.7 kPa, Liquid | 947.17
340 K, 3596.1 kPa, Liquid | 953.91
340 K, 4130.8 kPa, Liquid | 960.48
340 K, 4614 kPa, Liquid | 966.04
340 K, 5146.7 kPa, Liquid | 971.84
340 K, 5642.7 kPa, Liquid | 976.95
340 K, 6163.1 kPa, Liquid | 982.05
340 K, 6711.6 kPa, Liquid | 987.19
340 K, 7112.6 kPa, Liquid | 990.78
350 K, 2091.1 kPa, Liquid | 872.23
350 K, 2104.3 kPa, Liquid | 872.59

Liquid
Conditions | mass density | vapor or sublimation pressure
320 K | 1013.47 kg/m3 and 1014.09 kg/m3 | 1038.1 kPa and 1038.5 kPa and 1038.4 kPa
325 K | – | 1175.7 kPa
330 K | 972.09 kg/m3 and 973.36 kg/m3 and 973.37 kg/m3 | 1325.7 kPa and 1325.6 kPa
335 K | – | 1489.7 kPa
340 K | 925.57 kg/m3 | 1668.8 kPa and 1668.5 kPa and 1670.2 kPa
345 K | – | 1863.6 kPa
